# Target: T1, LmxCLK1 (Leishmania mexicana, UniProt E9AMP2)
# T1 sequence (E9AMP2 1-422): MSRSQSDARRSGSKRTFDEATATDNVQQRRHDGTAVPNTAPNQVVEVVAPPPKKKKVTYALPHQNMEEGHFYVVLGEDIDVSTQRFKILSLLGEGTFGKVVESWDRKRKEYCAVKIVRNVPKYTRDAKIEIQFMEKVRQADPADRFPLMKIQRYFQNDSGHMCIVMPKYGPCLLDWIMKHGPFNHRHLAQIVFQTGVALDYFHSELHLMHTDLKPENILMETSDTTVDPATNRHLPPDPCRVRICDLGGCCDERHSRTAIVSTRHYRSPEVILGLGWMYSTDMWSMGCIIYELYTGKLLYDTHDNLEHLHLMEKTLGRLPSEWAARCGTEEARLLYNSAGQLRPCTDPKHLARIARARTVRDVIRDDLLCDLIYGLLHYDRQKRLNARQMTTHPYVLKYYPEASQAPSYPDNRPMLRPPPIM
# Assay: biochemical
# Assay type: binding
# Conditions: not given
Compound,ΔTm Run 1,ΔTm Run 2,ΔTm Average
Nc1ccc(C(=O)Nc2cccc(-c3nc(N4CCOCC4)c4oc5ncccc5c4n3)c2)cn1 [YM201636],0.4 °C,0 °C,
Nc1nc(N)c2nc(-c3cccc(O)c3)cnc2n1 [TG100713],0.1 °C,-0.2,-0.1
CN(C)CCSSCCNC(=O)C1CCN(C(=O)CSc2ccc(Cl)cc2)CC1 [6H05],0.1 °C,-0.2,-0.1
Cc1[nH]nc2ccc(-c3cncc(OC[C@@H](N)Cc4ccccc4)c3)cc12 [A-674563],0.8 °C,0.6 °C,0.7 °C

# Same assay, conditions: DSF, 10 µM compound, 2 µM LmxCLK1, Run 1
row,Compound,ΔTm Run 1
1,CCCCCCCCc1ccc(CCC(N)(CO)CO)cc1.Cl [Fingolimod (FTY720) HCl],0.2 °C
2,COc1cc2/c(=N/c3ccc(Br)cc3F)nc[nH]c2cc1OCC1CCN(C)CC1 [Vandetanib (ZD6474)],0.0 °C
3,Cc1cc(CN2CCN(c3c(Br)cnc4nc(-c5ccc(N6CCN(C)CC6)cc5)[nH]c34)CC2)no1 [CCT137690],0.3 °C
4,S-Ruxolitinib (INCB018424),0.6 °C
5,CCCS(=O)(=O)Nc1ccc(F)c(C(=O)c2c[nH]c3ncc(-c4ccc(Cl)cc4)cc23)c1F [Vemurafenib (PLX4032)],-0.1 °C
6,CC1(C)CNc2cc(NC(=O)c3cccnc3NCc3ccncc3)ccc21.O=P(O)(O)O.O=P(O)(O)O [Motesanib Diphosphate (AMG-706)],0.3 °C
7,CC1(COc2ccc3c(c2)ncn3-c2ccc3cccc(N4CCC(N)CC4)c3n2)COC1 [Crenolanib (CP-868596)],0.5 °C
8,O=C(Nc1cccc(Nc2ncc(Br)c(NCCc3cnc[nH]3)n2)c1)N1CCCC1 [BX-912],0.2 °C
9,C[C@@H](Oc1cc(-c2cnn(C3CCNCC3)c2)cnc1N)c1c(Cl)ccc(F)c1Cl [Crizotinib (PF-02341066)],1.4 °C
10,S=C(NCc1ccc2c(c1)OCO2)N1CCN(c2ncnc3c2oc2ccccc23)CC1 [Amuvatinib (MP-470)],0.1 °C
11,Cc1cn(-c2cc(NC(=O)c3ccc(C)c(Nc4nccc(-c5cccnc5)n4)c3)cc(C(F)(F)F)c2)cn1 [Nilotinib (AMN-107)],0.0 °C
12,C=CC(=O)Nc1cccc(Nc2nc(Nc3ccc(N4CCN(C(C)=O)CC4)cc3OC)ncc2C(F)(F)F)c1 [CO-1686 (AVL-301)],0.0 °C
13,COC(=O)Nc1ccc(-c2nc(N3CCOCC3)c3cnn(C4CCN(C(=O)OC)CC4)c3n2)cc1 [WYE-354],-0.1 °C
14,Cc1ccc(NC(=O)c2ccc(CN3CCN(C)CC3)cc2)cc1Nc1nc(-c2cccnc2)cs1 [Masitinib (AB1010)],0.3 °C
15,CN1CCN(CCOc2cc(OC3CCOCC3)c3c(Nc4c(Cl)ccc5c4OCO5)ncnc3c2)CC1 [Saracatinib (AZD0530)],0.8 °C

# Same assay, conditions: DSF, 10 µM compound, 2 µM LmxCLK1, Run 2
row,Compound,ΔTm Run 2
1,CCCCCCCCc1ccc(CCC(N)(CO)CO)cc1.Cl [Fingolimod (FTY720) HCl],-0.1 °C
2,COc1cc2/c(=N/c3ccc(Br)cc3F)nc[nH]c2cc1OCC1CCN(C)CC1 [Vandetanib (ZD6474)],-0.1 °C
3,Cc1cc(CN2CCN(c3c(Br)cnc4nc(-c5ccc(N6CCN(C)CC6)cc5)[nH]c34)CC2)no1 [CCT137690],0.4 °C
4,S-Ruxolitinib (INCB018424),0.6 °C
5,CCCS(=O)(=O)Nc1ccc(F)c(C(=O)c2c[nH]c3ncc(-c4ccc(Cl)cc4)cc23)c1F [Vemurafenib (PLX4032)],-0.1 °C
6,CC1(C)CNc2cc(NC(=O)c3cccnc3NCc3ccncc3)ccc21.O=P(O)(O)O.O=P(O)(O)O [Motesanib Diphosphate (AMG-706)],0.1 °C
7,CC1(COc2ccc3c(c2)ncn3-c2ccc3cccc(N4CCC(N)CC4)c3n2)COC1 [Crenolanib (CP-868596)],-0.1 °C
8,O=C(Nc1cccc(Nc2ncc(Br)c(NCCc3cnc[nH]3)n2)c1)N1CCCC1 [BX-912],0.2 °C
9,C[C@@H](Oc1cc(-c2cnn(C3CCNCC3)c2)cnc1N)c1c(Cl)ccc(F)c1Cl [Crizotinib (PF-02341066)],1.4 °C
10,S=C(NCc1ccc2c(c1)OCO2)N1CCN(c2ncnc3c2oc2ccccc23)CC1 [Amuvatinib (MP-470)],0.0 °C
11,Cc1cn(-c2cc(NC(=O)c3ccc(C)c(Nc4nccc(-c5cccnc5)n4)c3)cc(C(F)(F)F)c2)cn1 [Nilotinib (AMN-107)],0.0 °C
12,C=CC(=O)Nc1cccc(Nc2nc(Nc3ccc(N4CCN(C(C)=O)CC4)cc3OC)ncc2C(F)(F)F)c1 [CO-1686 (AVL-301)],-0.3 °C
13,COC(=O)Nc1ccc(-c2nc(N3CCOCC3)c3cnn(C4CCN(C(=O)OC)CC4)c3n2)cc1 [WYE-354],-0.2 °C
14,Cc1ccc(NC(=O)c2ccc(CN3CCN(C)CC3)cc2)cc1Nc1nc(-c2cccnc2)cs1 [Masitinib (AB1010)],0.2 °C
15,CN1CCN(CCOc2cc(OC3CCOCC3)c3c(Nc4c(Cl)ccc5c4OCO5)ncnc3c2)CC1 [Saracatinib (AZD0530)],0.7 °C

# Same assay, conditions: DSF, 10 µM compound, 2 µM LmxCLK1, mean of two runs
row,Compound,ΔTm Average
1,CCCCCCCCc1ccc(CCC(N)(CO)CO)cc1.Cl [Fingolimod (FTY720) HCl],0.1 °C
2,COc1cc2/c(=N/c3ccc(Br)cc3F)nc[nH]c2cc1OCC1CCN(C)CC1 [Vandetanib (ZD6474)],-0.1 °C
3,Cc1cc(CN2CCN(c3c(Br)cnc4nc(-c5ccc(N6CCN(C)CC6)cc5)[nH]c34)CC2)no1 [CCT137690],0.3 °C
4,S-Ruxolitinib (INCB018424),0.6 °C
5,CCCS(=O)(=O)Nc1ccc(F)c(C(=O)c2c[nH]c3ncc(-c4ccc(Cl)cc4)cc23)c1F [Vemurafenib (PLX4032)],-0.1 °C
6,CC1(C)CNc2cc(NC(=O)c3cccnc3NCc3ccncc3)ccc21.O=P(O)(O)O.O=P(O)(O)O [Motesanib Diphosphate (AMG-706)],0.2 °C
7,CC1(COc2ccc3c(c2)ncn3-c2ccc3cccc(N4CCC(N)CC4)c3n2)COC1 [Crenolanib (CP-868596)],0.2 °C
8,O=C(Nc1cccc(Nc2ncc(Br)c(NCCc3cnc[nH]3)n2)c1)N1CCCC1 [BX-912],0.2 °C
9,C[C@@H](Oc1cc(-c2cnn(C3CCNCC3)c2)cnc1N)c1c(Cl)ccc(F)c1Cl [Crizotinib (PF-02341066)],1.4 °C
10,S=C(NCc1ccc2c(c1)OCO2)N1CCN(c2ncnc3c2oc2ccccc23)CC1 [Amuvatinib (MP-470)],0.1 °C
11,Cc1cn(-c2cc(NC(=O)c3ccc(C)c(Nc4nccc(-c5cccnc5)n4)c3)cc(C(F)(F)F)c2)cn1 [Nilotinib (AMN-107)],0.0 °C
12,C=CC(=O)Nc1cccc(Nc2nc(Nc3ccc(N4CCN(C(C)=O)CC4)cc3OC)ncc2C(F)(F)F)c1 [CO-1686 (AVL-301)],-0.1 °C
13,COC(=O)Nc1ccc(-c2nc(N3CCOCC3)c3cnn(C4CCN(C(=O)OC)CC4)c3n2)cc1 [WYE-354],-0.1 °C
14,Cc1ccc(NC(=O)c2ccc(CN3CCN(C)CC3)cc2)cc1Nc1nc(-c2cccnc2)cs1 [Masitinib (AB1010)],0.2 °C
15,CN1CCN(CCOc2cc(OC3CCOCC3)c3c(Nc4c(Cl)ccc5c4OCO5)ncnc3c2)CC1 [Saracatinib (AZD0530)],0.7 °C

# — PMC7619385 (ACS infectious diseases, 2025)
